Data reported in US6218163A, “Stable biocatalysts for ester hydrolysis” (Thermogen, Inc., priority 1996, dated 2001).

Tests used:
Assay type in all cases: biochemical
[1] = test system: Thermus sp. T351 esterase E100; assay: Inhibition by reaction components on the hydrolysis of p-nitrophenylproprionate by E100
Procedure: Measurement of E100 Enzyme Activity--Esterase activity is measured by monitoring the hydrolysis of p-nitrophenylproprionate (pNP), or in some cases MUB. Each substrate is dissolved in acetonitrile and added to the reaction mixture (100 μM final concentration) which contain 50 mM Tris HCl pH 8.5 adjusted for temperature dependent pH variation. Reactions are thermally equilibrated at 37° C. for 5 minutes prior to initiation of the reaction by addition of 10 μL of enzyme sample, while control reactions substituted equivalent amounts of BSA. The reaction is monitored spectrophotometrically at 405 nm ε=17 mM^-1 cm^-1 for pNP and 360 nm ε=7.9 mM^-1 cm^-1 for MUB.
The rates of enzyme catalyzed hydrolysis are corrected for the spontaneous hydrolysis of the substrate. Protein concentrations are determined by either the absorbance at 280 nm or by Lowery assay. Crude activity is determined by a colorimetric assay based on the hydrolysis of 5-bromo-4-chloro-3-indoyl esters suspended in a 0.7% agar matrix on microtiter plates. A 0.1 mg/ml solution of the indolyl derivative is dissolved in a minimal volume of acetonitrile and added to a warm solution of 0.7% agar containing 0.1M phosphate buffer pH 7.5. 10 μL of this solution is distributed to microtiter plates which, when cooled, could be used with as much as 100 μL of enzyme sample and incubated at temperatures from ambient to >65° C.

[2] = test system: Thermus sp. T351 esterase E101
[3] = test system: Thermus sp. T351 esterase E100; assay: Kinetic analysis of E100: concentration-dependent initial rates of nitrophenyl proprionate hydrolysis; details: p-NP as substrate, pH 8.5, 50 mM Tris-HCl, 37° C.
Procedure: FIG. 6. Kinetic analysis of E100.
Determination of Kinetic Characteristics--Kinetic characteristics are determined by measuring the concentration dependent initial rates of enzyme catalyzed hydrolysis of nitrophenyl proprionate. Reactions are run at pH 8.5 in 50 mM Tris-HCl buffer equilibrated to 37° C. and initiated by addition of enzyme. Rates are determined from the absorbance changes due to formation of product nitrophenol at 405 nm. Rates are corrected for the spontaneous hydrolysis of substrate during the course of the reaction. Concentration vs. rate data are analyzed by both double reciprocal plots and by HanesWolff plots to determine Km, Vmax and Vmax/Km.

**Q.** `OCCS` [BME, β-mercaptoethanol] was tested. Which “Relative Rate” value ([1]; additive 10 mM, None = 100, substrate p-nitrophenylproprionate) did it give?
**A.** The value was 99%.

**Q.** With `O=C(O)CN(CCN(CC(=O)O)CC(=O)O)CC(=O)O` [EDTA] as the compound, how does the “Relative Rate” value ([1]; pH 8.5, 1000 µM) read?
**A.** Its value is 96.

**Q.** Which results are given for `O=S(=O)(F)Cc1ccccc1` [PMSF]?
**A.** Relative Rate ([1]; additive 0.1 mM, None = 100, substrate p-nitrophenylproprionate): 0%; Inhibition of E101 (in words) [2]: inhibited

**Q.** With `CCC(=O)Oc1ccc([N+](=O)[O-])cc1` [p-NP, p-nitrophenylproprionate] as the compound, how does the Vmax [3] read?
**A.** Its Vmax is 1.8×10^-5 Mmin^-1.

**Q.** And the Km ([3]; Lineweaver-Burke and Eadie-Hofstee analysis)?
**A.** Its Km is 72 µM.

**Q.** For `Cc1ccc(S(=O)(=O)F)cc1` [tosyl fluoride], which “Inhibition of E100 (in words)” value [1] is on record?
**A.** Its value is “effectively inhibited”.
